Data from BindingDB's records for doi:10.7270/Q2B27SQ0 (Nmmlsc, 2008).
Where a name gives a salt, the structure may show the parent alone.

The compounds below were run against Apoptosis regulator Bcl-2 (Homo sapiens, UniProt P10415) (assay: PubChem AID 950). Conditions: not given.
Sequence of Apoptosis regulator Bcl-2 (P10415 whole entry): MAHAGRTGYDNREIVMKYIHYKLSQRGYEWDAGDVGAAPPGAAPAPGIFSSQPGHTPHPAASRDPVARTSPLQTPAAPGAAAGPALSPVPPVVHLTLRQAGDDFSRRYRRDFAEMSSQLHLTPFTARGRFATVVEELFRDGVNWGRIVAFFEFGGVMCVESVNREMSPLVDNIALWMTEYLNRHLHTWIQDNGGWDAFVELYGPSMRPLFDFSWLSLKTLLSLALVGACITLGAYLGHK
Compound COc1ccc2c3c(cccc13)N(C)N=C2C [MLS000554700] has an EC50 of 2.01 µM. For CN1CCc2cccc3c2[C@@H]1Cc1ccc(O)c(O)c1-3, the EC50 was 16.1 µM. Work on CC(=O)c1ccc(NC(=O)c2ccc3nc(-c4ccco4)c(-c4ccco4)nc3c2)cc1 [N-(4-acetylphenyl)-2,3-di-2-furyl-6-quinoxalinecarboxamide] yielded an EC50 of 8.54 µM. In the case of OCCN1CCN(CCCc2c3c(cc4c2CCC4)CCC3)CC1 [MLS000698424], the EC50 is reported as 17.9 µM. With COc1cccc2c(SCC(=O)NN=Cc3ccc(O)cc3O)cc(C)nc12 [N'-[(E)-(2-hydroxy-4-oxo-1-cyclohexa-2,5-dienylidene)methyl]-2-[(8-methoxy-2-methyl-4-quinolinyl)thio]acetohydrazide] the EC50 was 24.1 µM. Work on Cc1nc2ncccn2c1-c1csc(Nc2ccc(O)cc2)n1 yielded an EC50 of 0.67 µM. Compound Nc1c(C(=O)NCC2CCCO2)sc2nc3c(c(-c4ccco4)c12)CC/C3=C\c1ccco1 (stereo unspecified) [SMR000259502] has an EC50 of 5.26 µM. Compound O=C(NCc1ccccc1)c1ccc2nc(-c3ccco3)c(-c3ccco3)nc2c1 [2,3-bis(furan-2-yl)-N-(phenylmethyl)quinoxaline-6-carboxamide] has an EC50 of 7.44 µM. CC(=NNC(=O)c1cc(O)c(O)c(O)c1)c1ccc([N+](=O)[O-])cc1 [SMR000312589] showed an EC50 of 5.96 µM. Compound Cc1cc(N)ccc1N1CCCC1 [3-methyl-4-(1-pyrrolidinyl)aniline;hydrochloride] has an EC50 of 13.7 µM. Work on O=[N+]([O-])c1ccc(N=NCc2ccc(O)c(O)c2O)c(S(=O)(=O)N2CCOCC2)c1 [MLS000336720] yielded an EC50 of 4.66 µM. In the case of COc1cc(/C=C2\CC/C(=C\c3cc(OC)c(O)c(OC)c3)C2=O)cc(OC)c1O [(2E,5E)-2,5-bis[(4-hydroxy-3,5-dimethoxyphenyl)methylidene]cyclopentan-1-one], the EC50 is reported as 5.13 µM. With CCN1/C(=C/C(C)=C/c2sc3ccccc3[n+]2CC)Sc2ccccc21 [SMR000354813] the EC50 was 22.4 µM. Work on O=C1/C(=C\c2ccc(-c3ccccc3Cl)o2)SC(=S)N1CC1CCCO1 (stereo unspecified) [(5E)-5-[[5-(2-chlorophenyl)furan-2-yl]methylidene]-3-(oxolan-2-ylmethyl)-2-sulfanylidene-1,3-thiazolidin-4-one] yielded an EC50 of 2.33 µM. In the case of CCC(/C=C1\Sc2ccc(OC)cc2N1CCO)=C\c1sc2ccc(OC)cc2[n+]1CCO, the EC50 is reported as 16.1 µM. In the case of CN1CCc2cccc3c2[C@H]1Cc1ccc(O)c(O)c1-3 [APOMORPHINE HYDROCHLORIDE], the EC50 is reported as 42.3 µM. Nc1c(C(=O)NC2CC2)sc2nc3c(c(-c4ccco4)c12)CC/C3=C/c1ccco1 [SMR000259554] showed an EC50 of 4.67 µM. In the case of CCOC(=O)C1CCN(C(=O)Nc2ccc3nc(-c4ccco4)c(-c4ccco4)nc3c2)CC1 [MLS000113285], the EC50 is reported as 6.65 µM. Compound c1ccc(-c2nc(N3CCOCC3)[s+]n2-c2ccccc2)cc1 has an EC50 of 13.8 µM. O=C1c2ccccc2-c2onc3ccc(NCCCn4ccnc4)c1c23 [SMR000044769] was tested, and the EC50 was 4.05 µM. In the case of COc1ccc(CC(=O)Nc2ccc(-c3nc4cc(C)ccc4o3)c(O)c2)cc1OC [2-(3,4-dimethoxyphenyl)-N-[(4Z)-3-keto-4-(5-methyl-3H-1,3-benzoxazol-2-ylidene)cyclohexa-1,5-dien-1-yl]acetamide], the EC50 is reported as 10 µM. Compound COc1cc(CN=Nc2nn3cnnc3c3ccccc23)ccc1O [(4E)-2-methoxy-4-[[2-([1,2,4]triazolo[3,4-a]phthalazin-6-yl)hydrazinyl]methylidene]cyclohexa-2,5-dien-1-one] has an EC50 of 8.47 µM.

Same assay, conditions: inactive by the depositor's call
In the case of Cc1cc(C)nc(SCc2cc(=O)c(OC(=O)c3ccc(Cl)c([N+](=O)[O-])c3)co2)n1 [4-chloro-3-nitrobenzoic acid [6-[[(4,6-dimethyl-2-pyrimidinyl)thio]methyl]-4-oxo-3-pyranyl] ester], the EC50 is reported as 8.45 µM. With Fc1ccc(C2=Nc3cccc4cccc(c34)N2)cc1 [MLS000687139] the EC50 was 9.27 µM. Compound Cc1ccc(-c2ccc(/C=C/C(=O)c3ccccc3)o2)cc1 has an EC50 of 8.47 µM. Compound CCOC(=O)c1nc(Nc2ccc(C(=O)OC)cc2)c2ccccc2n1 [ethyl 4-(4-methoxycarbonylanilino)quinazoline-2-carboxylate] has an EC50 of 15.2 µM. CSc1nnc2c3cc(C)ccc3n(Cc3ccccc3)c2n1 [SMR000046397] showed an EC50 of 29.4 µM. With Cc1cc2n(c1)CCn1c(C)ccc1-2 [MLS000104384] the EC50 was 15.9 µM. With O=C1c2ccccc2-c2onc3ccc(NCc4ccco4)c1c23 [MLS000080234] the EC50 was 37.8 µM. With N#Cc1cc(-c2ccccc2)nn1-c1ccccc1 the EC50 was 39.6 µM. Work on COC(=O)c1c(C(=O)OC)c2cccc3cc(-c4ccccc4)c4ccc1c4n32 [SMR000161417] yielded an EC50 of 1.8 µM. O=C1C(=Cc2ccco2)NC(=S)N1c1ccccc1 [(5E)-5-(furan-2-ylmethylidene)-3-phenyl-2-sulfanylideneimidazolidin-4-one] showed an EC50 of 27.2 µM. CCOc1ccccc1CNc1ccc(O)cc1 gave an EC50 of 3.63 µM. For c1ccc(Nc2cccc(Nc3ccccc3)n2)cc1 [N,N'-diphenyl-2,6-pyridinediamine], the EC50 was 2.79 µM. In the case of COC(=O)CSc1ncnc2c1sc1nc(-c3ccco3)c3c(c12)CC(C)(C)OC3 [MLS000039339], the EC50 is reported as 27.6 µM. For CCOC(=O)C1=C(Cc2ccc(OC)cc2)C(=O)c2ccccc2C1=O [SMR000136995], the EC50 was 13.6 µM. In the case of Cc1cccc(OCC(=O)NCC(=O)NN=Cc2cc(Br)ccc2OCc2ccccc2)c1 [N-[(5-bromanyl-2-phenylmethoxy-phenyl)methylideneamino]-2-[2-(3-methylphenoxy)ethanoylamino]ethanamide], the EC50 is reported as 5.73 µM. CN(N=Cc1ccncc1)C1=NS(=O)(=O)c2ccccc21 [isonicotinaldehyde (1,1-dioxido-1,2-benzisothiazol-3-yl)(methyl)hydrazone] showed an EC50 of 2.44 µM. For COc1cc2nc(=S)[nH]c(NCCc3ccc(S(N)(=O)=O)cc3)c2cc1OC [MLS000674601], the EC50 was 0.54 µM. With c1coc(C2=Nc3cccc4cccc(c34)N2)c1 [2-(2-furanyl)-1H-perimidine] the EC50 was 9.76 µM. With COc1ccc(C2=Nn3c(nnc3-c3ccco3)SC2)cc1OC [6-(3,4-Dimethoxy-phenyl)-3-furan-2-yl-7H-[1,2,4]triazolo[3,4-b][1,3,4]thiadiazine] the EC50 was 1.21 µM. Work on CCN1C(=O)/C(=C/C=C2\C=CN(CC)c3ccccc32)SC1=S yielded an EC50 of 35.3 µM. CC(C)(C)NC(=O)COc1ccc(CNc2ccc3[nH]c(O)nc3c2)cc1 [N-tert-butyl-2-[4-[[(2-oxidanylidene-1,3-dihydrobenzimidazol-5-yl)amino]methyl]phenoxy]ethanamide] was tested, and the EC50 was 4.65 µM. In the case of O=C(Nc1cccc(C(F)(F)F)c1)c1ccc2nc(-c3ccco3)c(-c3ccco3)nc2c1 [SMR000142217], the EC50 is reported as 10.9 µM. Work on Cc1ccc(NC2=C(NC(=O)c3ccccc3)C(=O)c3ccccc3C2=O)cc1Cl [MLS000392290] yielded an EC50 of 4.38 µM. COc1ccc(CCNC(=O)c2ccc3nc(-c4ccco4)c(-c4ccco4)nc3c2)cc1OC [N-[2-(3,4-dimethoxyphenyl)ethyl]-2,3-di-2-furylquinoxaline-6-carboxamide] was tested, and the EC50 was 13.6 µM. COCCCn1c(N)c(C(=O)Nc2sc3c(c2C(=O)OC)CCCC3)c2nc3ccccc3nc21 [MLS000595323] showed an EC50 of 1.95 µM. In the case of Cc1nc2ncccn2c1-c1csc(Nc2ccccc2)n1 [4-(2-methyl-3-imidazo[1,2-a]pyrimidinyl)-N-phenyl-2-thiazolamine], the EC50 is reported as 8.93 µM. For O=C(NC1=C(NC2CCS(=O)(=O)C2)C(=O)c2ccccc2C1=O)c1ccccc1 (stereo unspecified) [N-[3-[(1,1-dioxo-3-thiolanyl)amino]-1,4-dioxo-2-naphthalenyl]benzamide], the EC50 was 19.7 µM. In the case of Clc1nss/c1=N\c1ccc(Br)cc1 [N-(4-bromophenyl)-4-chloro-5-dithiazolimine], the EC50 is reported as 49.8 µM. For CCOC(=O)c1ccc(Nc2nc(C(=O)OCC)nc3ccccc23)cc1, the EC50 was 1.51 µM. CNc1ccc(Br)cc(C(=O)/C=C/c2cc(OC)ccc2OC)c1=O [SMR000115626] showed an EC50 of 8.97 µM. CN1CCN(C2=C(Cl)C(=O)C(c3cnc(N4CCCCC4)s3)=C(Cl)C2=O)CC1 showed an EC50 of 0.16 µM. Compound O=C(/C=C/c1ccccc1Cl)c1ccccc(=O)c1O [3-[(E)-3-(2-chlorophenyl)prop-2-enoyl]-2-oxidanyl-cyclohepta-2,4,6-trien-1-one] has an EC50 of 15 µM. In the case of O=C(Nc1ccccc1)c1ccc2nc(-c3ccco3)c(-c3ccco3)nc2c1 [2,3-di-2-furyl-N-phenyl-6-quinoxalinecarboxamide], the EC50 is reported as 36.5 µM. With c1ccc(-c2nc(N3CCCCCC3)c3ccccc3n2)nc1 [SMR000046752] the EC50 was 19.8 µM. O=C(Nc1ccc2nc(-c3ccco3)c(-c3ccco3)nc2c1)NC1CC1 [SMR000118524] showed an EC50 of 9.26 µM. O=C(NCc1ccccn1)c1ccc2nc(-c3ccco3)c(-c3ccco3)nc2c1 [2,3-di-2-furyl-N-(pyridin-2-ylmethyl)quinoxaline-6-carboxamide] gave an EC50 of 14.1 µM. With Cc1ccc(C=NNC(=O)CSc2nnc(-c3ccc(Cl)cc3)n2-c2ccccc2)o1 [SMR000218122] the EC50 was 8.45 µM. O=C(Nc1ccc(N2CCOCC2)cc1)Nc1ccc2nc(-c3ccco3)c(-c3ccco3)nc2c1 [N-(2,3-di-2-furyl-6-quinoxalinyl)-N'-[4-(4-morpholinyl)phenyl]urea] gave an EC50 of 8.89 µM. Compound O=C(NC1=C(Nc2ccc(Cl)cc2)C(=O)c2ccccc2C1=O)c1ccccc1 has an EC50 of 17.9 µM. With O=C(Nc1ccc2nc(-c3ccco3)c(-c3ccco3)nc2c1)N1CCN(c2ccccn2)CC1 the EC50 was 8.86 µM. For Cc1ccc(C(=O)/C=C/c2ccc(-c3ccc(C)cc3)o2)cc1 [1-p-Tolyl-3-(5-p-tolyl-furan-2-yl)-propenone], the EC50 was 3.08 µM. C#CCn1cc(C=C2C(=O)c3ccccc3C2=O)c2ccccc21 [SMR000196125] showed an EC50 of 13.8 µM. With COc1ccc2nc(-c3ccco3)c(-c3ccco3)nc2c1 [2,3-di-2-furyl-6-methoxyquinoxaline] the EC50 was 14.4 µM. With Cc1cc(-c2csc(N)n2)c(C)n1C [4-(1,2,5-trimethyl-3-pyrrolyl)-2-thiazolamine] the EC50 was 46.3 µM. In the case of c1ccc(C2=Nc3cccc4cccc(c34)N2)cc1, the EC50 is reported as 26.5 µM. CN(C)c1ccc(C=C2C(=O)NC(=O)NC2=O)cc1[N+](=O)[O-] [5-[[4-(dimethylamino)-3-nitrophenyl]methylidene]-1,3-diazinane-2,4,6-trione] showed an EC50 of 16.4 µM. In the case of COc1ccc(/C=C/C(=O)c2cc(Br)ccc(=O)c2O)cc1 [MLS000702099], the EC50 is reported as 33.6 µM. Compound Clc1nc(NCc2cccnc2)nc(N2CCOCC2)n1 [MLS000121154] has an EC50 of 24.9 µM. COc1ccc(-n2c(=O)c3ccccc3c3ccccc3c2=O)c(OC)c1 showed an EC50 of 13.4 µM.
